This test concerns the target T1, Chymotrypsin-like elastase family member 2A (Sus scrofa) (UniProt P08419).
T1 sequence (whole entry): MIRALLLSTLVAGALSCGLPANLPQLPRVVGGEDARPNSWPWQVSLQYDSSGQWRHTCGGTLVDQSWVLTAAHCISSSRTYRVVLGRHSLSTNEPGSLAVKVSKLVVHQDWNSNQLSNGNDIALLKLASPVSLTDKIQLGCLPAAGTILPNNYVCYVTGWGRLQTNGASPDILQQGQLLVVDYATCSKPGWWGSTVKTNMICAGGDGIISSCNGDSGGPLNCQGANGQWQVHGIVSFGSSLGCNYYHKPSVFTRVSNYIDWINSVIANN
In words: Effective dose for inhibition of the porcine Pancreatic elastase.

As for `CC(C)C/C=C/[C@](C)(O)[C@H]1CC[C@H]2[C@@H]3CC(=O)[C@H]4CC(=O)CC[C@]4(C)[C@H]3CC[C@@]21C`, the ED50 is 100 µM.

Values taken from ChEMBL document CHEMBL1135164, “New ketosteroids from the red alga Hypnea musciformis” (Bioorg Med Chem Lett, 2002).
